Experimental data published in PubChem BioAssay AID248 (DTP/NCI, 2004).
Values joined by “and” are separate entries in the source; they are usually repeats but may differ in a detail not shown here. Identical values can stand only once. Inconclusive results and toxic doses are left out. Cut-off read from the data, not from the text of the source: active = T/C of 150% or more; inactive = T/C below 125%.

Test system: L1210 leukemia ip in BDF1 mice, survival T/C
Assay: NCI In Vivo Anticancer Drug Screen. Data for tumor model L1210 Leukemia (intraperitoneal) in B6D2F1 (BDF1) mice
Conditions: endpoint: mean survival time, higher = longer survival
How it was run: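 Ratio derived from survival: compound-dosed mice over vehicle-dosed mice, all bearing a transplantable tumor.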

[1] = dose: 100.0 mg/kg/injection, schedule: Q04DX003 (ip), vehicle: saline with Tween-80
[2] = dose: 200.0 mg/kg/injection, schedule: Q04DX003 (ip), vehicle: saline with Tween-80
[3] = dose: 50.0 mg/kg/injection, schedule: Q04DX003 (ip), vehicle: Klucel (hydroxypropylcellulose) (HPC)
[4] = dose: 100.0 mg/kg/injection, schedule: Q04DX003 (ip), vehicle: Klucel (hydroxypropylcellulose) (HPC)
[5] = dose: 200.0 mg/kg/injection, schedule: Q04DX003 (ip), vehicle: Klucel (hydroxypropylcellulose) (HPC)
[6] = dose: 100.0 mg/kg/injection, schedule: Q01DX001 (ip), vehicle: carboxymethylcellulose (CMC)
[7] = dose: 200.0 mg/kg/injection, schedule: Q01DX001 (ip), vehicle: carboxymethylcellulose (CMC)
[8] = dose: 25.0 mg/kg/injection, schedule: Q01DX009 (ip), vehicle: Klucel (hydroxypropylcellulose) (HPC)
[9] = dose: 50.0 mg/kg/injection, schedule: Q01DX009 (ip), vehicle: Klucel (hydroxypropylcellulose) (HPC)
[10] = dose: 400.0 mg/kg/injection, schedule: Q04DX003 (ip), vehicle: Klucel (hydroxypropylcellulose) (HPC)

Measured: T/C

CCCCCN(CCCCC)CCC(=O)c1ccc2cc(Br)c3ccccc3c2c1
inactive: dose: 13.3 mg/kg/injection, schedule: Q01DX Z (ip), vehicle: methylcellulose (MC) 91 % of control | dose: 20.0 mg/kg/injection, schedule: Q01DX Z (ip), vehicle: methylcellulose (MC) 92 % of control | dose: 30.0 mg/kg/injection, schedule: Q01DX Z (ip), vehicle: methylcellulose (MC) 92 % of control

Cc1cccc(/C=N\OCc2ccccc2)n1
inactive: [1] 98 % of control | [2] 98 % of control | dose: 400.0 mg/kg/injection, schedule: Q04DX003 (ip), vehicle: saline with Tween-80 98 % of control

COc1ccc(OC)c(NC(=O)Nc2ccc([As](=O)(O)O)cc2)c1
inactive: [3] 96 % of control | [4] 100 % of control | [5] 93 % of control and 88 % of control

Cc1ccc(C(=O)OCc2ccccc2CN2CCOCC2)cc1
inactive: dose: 100.0 mg/kg/injection, schedule: Q04DX002 (ip), vehicle: Klucel (hydroxypropylcellulose) (HPC) 100 % of control | dose: 200.0 mg/kg/injection, schedule: Q04DX002 (ip), vehicle: Klucel (hydroxypropylcellulose) (HPC) 103 % of control | dose: 400.0 mg/kg/injection, schedule: Q04DX002 (ip), vehicle: Klucel (hydroxypropylcellulose) (HPC) 92 % of control

CC(=O)Nc1cccc(OCCOc2ccc([N+](=O)[O-])cc2)c1
inactive: [6] 92 % of control | [7] 92 % of control | dose: 400.0 mg/kg/injection, schedule: Q01DX001 (ip), vehicle: carboxymethylcellulose (CMC) 90 % of control

O=C(CCl)Nc1ccc(N=Nc2ccccc2)cc1
inactive: [8] 90 % of control | [9] 90 % of control

COC(=O)c1ccccc1N=NNc1cccc(SC)c1
inactive: [1] 95 % of control | [2] 93 % of control

COc1ccc(C(=O)c2ccccc2)cc1OC
inactive: [4] 89 % of control | [5] 90 % of control | [10] 89 % of control

C/C(CCCC(C)(C)C(=O)O)=N/Nc1ccc([N+](=O)[O-])cc1[N+](=O)[O-]
inactive: dose: 75.0 mg/kg/injection, schedule: Q01DX001 (ip), vehicle: other 93 % of control

CS(=O)(=O)OC1C(OCc2ccccc2)OC(COCc2ccccc2)C(OC2OC(COCc3ccccc3)C(OCc3ccccc3)C(OCc3ccccc3)C2OCc2ccccc2)C1OCc1ccccc1 (configuration not stated)
inactive: [3] 93 % of control | [4] 93 % of control | [5] 97 % of control | [10] 93 % of control

Nc1nc(SCc2ccccc2)c2ncn(C3CCCO3)c2n1 (configuration not stated)
inactive: dose: 25.0 mg/kg/injection, schedule: Q01DX Z (ip), vehicle: methylcellulose (MC) 101 % of control | dose: 50.0 mg/kg/injection, schedule: Q01DX Z (ip), vehicle: methylcellulose (MC) 120 % of control

CCC(C)(CO)N=Cc1ccccc1O.CCC(C)(O)/N=C/c1ccccc1O.[Cu].[Cu] (configuration not stated)
inactive: dose: 9.5 mg/kg/injection, schedule: Q01DX001 (ip), vehicle: other 100 % of control | dose: 19.0 mg/kg/injection, schedule: Q01DX001 (ip), vehicle: other 97 % of control | dose: 38.0 mg/kg/injection, schedule: Q01DX001 (ip), vehicle: other 86 % of control

CC([CH2][Hg][Cl])c1ccccc1 (configuration not stated)
inactive: dose: 3.13 mg/kg/injection, schedule: Q01DX009 (ip), vehicle: saline with Tween-80 95 % of control | dose: 6.25 mg/kg/injection, schedule: Q01DX009 (ip), vehicle: saline with Tween-80 92 % of control | dose: 6.25 mg/kg/injection, schedule: Q04DX003 (ip), vehicle: Klucel (hydroxypropylcellulose) (HPC) 101 % of control | dose: 12.5 mg/kg/injection, schedule: Q01DX009 (ip), vehicle: saline with Tween-80 90 % of control | dose: 12.5 mg/kg/injection, schedule: Q04DX003 (ip), vehicle: Klucel (hydroxypropylcellulose) (HPC) 119 % of control

O=C(O)CCCc1nccc2ccccc12
inactive: dose: 75.0 mg/kg/injection, schedule: Q01DX001 (ip), vehicle: saline 102 % of control | dose: 150.0 mg/kg/injection, schedule: Q01DX001 (ip), vehicle: saline 92 % of control

Cc1cc2nc(Cc3ccccc3)[nH]c2cc1C
inactive: dose: 50.0 mg/kg/injection, schedule: Q01DX009 (ip), vehicle: saline with Tween-80 90 % of control

CC(C)CC(=O)OCc1ccc2c(c1)OCO2
inactive: dose: 222.0 mg/kg/injection, schedule: Q01DX Z (ip), vehicle: saline 109 % of control | dose: 333.0 mg/kg/injection, schedule: Q01DX Z (ip), vehicle: saline 102 % of control | dose: 500.0 mg/kg/injection, schedule: Q01DX Z (ip), vehicle: saline 108 % of control

CCCCCC(=O)N1CCCCC1C (configuration not stated)
inactive: dose: 50.0 mg/kg/injection, schedule: Q01DX001 (ip), vehicle: carboxymethylcellulose (CMC) 97 % of control | dose: 50.0 mg/kg/injection, schedule: Q01DX009 (ip), vehicle: carboxymethylcellulose (CMC) 95 % of control and 97 % of control | dose: 50.0 mg/kg/injection, schedule: Q04DX002 (ip), vehicle: carboxymethylcellulose (CMC) 96 % of control and 98 % of control | dose: 50.0 mg/kg/injection, schedule: Q04DX003 (ip), vehicle: carboxymethylcellulose (CMC) 98 % of control | [6] 103 % of control | dose: 100.0 mg/kg/injection, schedule: Q01DX009 (ip), vehicle: carboxymethylcellulose (CMC) 96 % of control and 98 % of control | dose: 100.0 mg/kg/injection, schedule: Q04DX002 (ip), vehicle: carboxymethylcellulose (CMC) 97 % of control and 109 % of control and 92 % of control | dose: 100.0 mg/kg/injection, schedule: Q04DX003 (ip), vehicle: carboxymethylcellulose (CMC) 93 % of control | [7] 90 % of control | dose: 200.0 mg/kg/injection, schedule: Q04DX002 (ip), vehicle: carboxymethylcellulose (CMC) 100 % of control and 86 % of control | dose: 200.0 mg/kg/injection, schedule: Q04DX003 (ip), vehicle: carboxymethylcellulose (CMC) 95 % of control

C(=N\N=c1\[nH][nH]/c(=N/N=C/c2ccc(-c3ccccc3)cc2)c2ccccc12)/c1ccc(-c2ccccc2)cc1
inactive: dose: 50.0 mg/kg/injection, schedule: Q01DX001 (ip), vehicle: saline 110 % of control | dose: 100.0 mg/kg/injection, schedule: Q01DX001 (ip), vehicle: saline 98 % of control | dose: 200.0 mg/kg/injection, schedule: Q01DX001 (ip), vehicle: saline 95 % of control | dose: 400.0 mg/kg/injection, schedule: Q01DX001 (ip), vehicle: saline 98 % of control

c1ccc2c(SCCC3CCCCC3)nnnc2c1
inactive: dose: 100.0 mg/kg/injection, schedule: Q04DX003 (ip), vehicle: acetone 89 % of control | dose: 200.0 mg/kg/injection, schedule: Q04DX003 (ip), vehicle: acetone 98 % of control | dose: 400.0 mg/kg/injection, schedule: Q04DX003 (ip), vehicle: acetone 93 % of control

COc1ccc2c3csc4ccccc4c-3nc2c1
inactive: dose: 12.5 mg/kg/injection, schedule: Q01DX009 (ip), vehicle: saline 98 % of control | dose: 12.5 mg/kg/injection, schedule: Q04DX003 (ip), vehicle: saline 95 % of control | [8] 111 % of control | dose: 25.0 mg/kg/injection, schedule: Q01DX009 (ip), vehicle: saline 98 % of control | dose: 25.0 mg/kg/injection, schedule: Q04DX003 (ip), vehicle: saline 95 % of control | [9] 100 % of control | dose: 50.0 mg/kg/injection, schedule: Q04DX003 (ip), vehicle: saline 94 % of control

CCN(CC)CCCC(C)NC(=O)c1cccc2c([N+](=O)[O-])cccc12 (configuration not stated)
inactive: dose: 25.0 mg/kg/injection, schedule: Q01DX009 (ip), vehicle: water 100 % of control | dose: 50.0 mg/kg/injection, schedule: Q01DX009 (ip), vehicle: water 108 % of control | dose: 100.0 mg/kg/injection, schedule: Q01DX009 (ip), vehicle: water 103 % of control

OC1C#CCCCCC(O)C#CCCCC1 (configuration not stated)
inactive: dose: 18.75 mg/kg/injection, schedule: Q01DX009 (ip), vehicle: saline 97 % of control | dose: 37.5 mg/kg/injection, schedule: Q01DX009 (ip), vehicle: saline 95 % of control | dose: 37.5 mg/kg/injection, schedule: Q04DX003 (ip), vehicle: acetone 100 % of control | dose: 75.0 mg/kg/injection, schedule: Q01DX009 (ip), vehicle: saline 97 % of control | dose: 75.0 mg/kg/injection, schedule: Q04DX003 (ip), vehicle: acetone 97 % of control | dose: 150.0 mg/kg/injection, schedule: Q04DX003 (ip), vehicle: acetone 92 % of control
